From publication PMC5359555, “Mechanistic and structural basis of bioengineered bovine Cathelicidin-5 with optimized therapeutic activity” (Scientific Reports, 2017)
Values joined by “and” are separate entries in the source; they are usually repeats but may differ in a detail not shown here. Equal values may be shown once. Where a SMILES comes first, the peptide text is derived from it.

What was measured:
[1] = tested on: Plasmodium falciparum strain 3D7; test: microbe, parasite or virus in culture; format: cell-based; conditions: for antimalarial activity (in words): at 10 and 30 μM
Protocol: Plasmodium falciparum strain 3D7 was cultured in RPMI-1640 supplemented with 25 mg/l L-Glutamine; HEPES, NaHCO3; 50 mg/l Hypoxanthin; Gentamicien; 10% human serum; and RBCs at 3% hematocrit in an atmosphere of 5% CO2, 5% O2, and 90% N2 at 37°C as previously described. The Plasmodium lactate dehydrogenase (pLDH) assay was performed to measure the parasitic growth inhibition as described elsewhere[49] with BMAP-28 and its analogues treatment. In brief, malstat reagent was added to a 96-well plate (100 μL in each well). A Plasmodium infected RBC mixture of 20 μL in each well was mixed thoroughly using a plate shaker. And then 10 μL of each 1 mg/ml diaphorase and Nitroblue tetrozolium (NBT) were added to each well. The solution in the 96-well plate was mixed properly until a brown color appears and the absorbance was measured at 650 nm under a plate reader (PowerWaveHT, BioTek Instruments, USA). The hemolytic assay was carried out as described earlier. Briefly, RBCs prepared from fresh blood (Hematocrit ~5%) were incubated for 1 h at 37 °C after addition of test peptides. Relative hemoglobin concentration in supernatants after centrifugation at 2000× g for 5 min was monitored by measuring the absorbance at 540 nm by the plate reader (PowerWaveHT, BioTek Instruments, USA). As positive control, 100% hemolysis was taken from samples in which 2% Triton X-100 was added.

[2] = not given; remark: listed apart in the source
[3] = not given; remark: listed apart in the source
B16-F1 melanoma cells = test: MTT cell-viability assay, B16-F1 melanoma; format: cell-based, mouse
Protocol: (§1) The T-cell lymphoma (Jurkat) and B-cell lymphoma (Ramos) were cultured using RPMI-1640 medium supplemented with 10% fetal calf serum (FCS), 100 U ml^−1 penicillin and 100 μg ml^−1 streptomycin. An initial cell densities of 5 × 10^3 cells/well was uniformly maintained in a 96 well plate. The B16-F1 melanoma cells were grown in DMEM medium containing 10% FCS, 100 U ml^−1 penicillin and 100 μg ml^−1 streptomycin and 55 μM 2-mercaptoethanol. The cells were trypsinized and plated in a 96-well plate at a density of 5 × 10^3 cells/well. The cells were grown overnight at 37 °C using a 5% CO2 incubator. The cells were treated with different peptide concentration followed by cell proliferation assay. The MTT assay kit (Cayman chemicals, USA) was used to measure the cell viability at a peptide concentration varying from 2 to 15 μM (in triplicate). Fresh culture medium and cells in medium without peptide were considered as negative and positive controls for viability assay and was monitored at 24, 48 and 72 h. The Cayman MTT cell proliferation assay protocol was followed, and the absorbance were recorded at 570 nm using a microplate reader (PowerWaveHT, BioTek Instruments, USA).

[4] = tested on: Gram-positive and Gram-negative strains (E. coli BL21, Bacillus subtilis, Staphylococcus epidermis); format: cell-based; conditions: even at one order higher concentration than MIC ~2 μM
Protocol: The Escherichia coli strains BL21 and DH5α were obtained from Novagen and Takara Clontech, respectively. The Bacillus subtilis (3009) and Staphylococcus epidermis (12993) were purchased from NITE Biological Resource Center (NBRC, Japan). The bacterial growth procedures followed in this study were described elsewhere. The mid-log phase microbial growth (~4 × 10^7 cells/mL, 5 μL) was used for growth assay in a 96-well plate (5 replicates) at a variable peptide concentration incubated at 37 °C for 12–48 h.

B-cell lymphoma (Ramos) = format: cell-based; conditions: at a concentration higher than 30 μM
Protocol: as §1, with “The MTT assay kit (Cayman chemicals, USA) was used to measure the cell viability at a peptide concentration varying from 2 to 15 μM (in triplicate).” left out

SMILES | antimicrobial activity (in words) [4] | antimalarial activity (in words) [1] | anticancer activity (in words) (B-cell lymphoma (Ramos)) | further results
C[C@@H]1CC[C@H]2[C@@H](C)C(=O)O[C@@H]3O[C@@]4(C)CC[C@@H]1[C@]32OO4 [Art, artemisinin, reference compound] | – | – | – | inhibition at 5 µM ([1]; Plasmodium falciparum, 3D7, 5 μM, positive control, pLDH assay, read-out: growth inhibition (%) of P. falciparum): 100%
CC[C@H](C)[C@H](NC(=O)[C@H](CCCNC(=N)N)NC(=O)[C@@H](NC(=O)[C@@H](NC(=O)[C@@H]1CCCN1C(=O)[C@@H](NC(=O)[C@@H](NC(=O)[C@@H](NC(=O)[C@@H]1CCCN1C(=O)CNC(=O)[C@H](Cc1ccc(O)cc1)NC(=O)[C@H](CCCCN)NC(=O)[C@H](CCCCN)NC(=O)[C@H](Cc1c[nH]c2ccccc12)NC(=O)[C@H](C)NC(=O)[C@H](CCCNC(=N)N)NC(=O)[C@H](CC(C)C)NC(=O)[C@@H](NC(=O)[C@H](CCCCN)NC(=O)[C@H](CCCNC(=N)N)NC(=O)CNC(=O)[C@H](CC(C)C)NC(=O)[C@H](CO)NC(=O)[C@H](CCCNC(=N)N)NC(=O)[C@H](CC(C)C)NC(=O)CNC(=O)CN)[C@@H](C)CC)[C@@H](C)CC)[C@@H](C)CC)C(C)C)[C@@H](C)CC)[C@@H](C)CC)C(=O)NCC(=O)O (H-GGLRSLGRKILRAWKKYGPIIVPIIRIG-OH) | – | – | – | α content: 11.1% and 11.9%; β content [2]: 14.3% and 21.5%; β-sheet content [3]: 7.1% and 25.3% and 7.5%
CC[C@H](C)[C@H](NC(=O)[C@H](CCCCN)NC(=O)[C@H](CCCNC(=N)N)NC(=O)CNC(=O)[C@H](CC(C)C)NC(=O)[C@H](CO)NC(=O)[C@H](CCCNC(=N)N)NC(=O)[C@H](CC(C)C)NC(=O)CNC(=O)CN)C(=O)N[C@@H](CC(C)C)C(=O)N[C@@H](CCCNC(=N)N)C(=O)N[C@@H](C)C(=O)N[C@@H](Cc1c[nH]c2ccccc12)C(=O)N[C@@H](CCCCN)C(=O)N[C@@H](CCCCN)C(=O)N[C@@H](Cc1ccc(O)cc1)C(=O)NCC(N)=O [BMAP-28_1–18] (H-GGLRSLGRKILRAWKKYG-NH2; N-terminus assumed) | – | – | – | concentration found to be active (B16-F1 melanoma cells): ~ 30 μM; anticancer activity (in words) (B16-F1 melanoma cells; 10 μM): fairly low anticancer activity
CC[C@H](C)[C@H](NC(=O)[C@H](CCCCN)NC(=O)[C@H](CCCNC(=N)N)NC(=O)CN)C(=O)N[C@@H](CC(C)C)C(=O)N[C@@H](CCCNC(=N)N)C(=O)N[C@@H](C)C(=O)N[C@@H](Cc1c[nH]c2ccccc12)C(=O)N[C@@H](CCCCN)C(=O)N[C@@H](CCCCN)C(=O)N[C@@H](Cc1ccc(O)cc1)C(=O)NCC(N)=O [Syn3] (H-GRKILRAWKKYG-NH2; N-terminus assumed) | loss of activity | very low potentiality | loss-of activity | –
CC(C)C[C@H](NC(=O)CNC(=O)CN)C(=O)N[C@@H](CCCNC(=N)N)C(=O)N[C@@H](CO)C(=O)N[C@@H](CC(C)C)C(=O)NCC(=O)N[C@@H](CCCNC(=N)N)C(=O)N[C@@H](CCCCN)C(=O)N[C@@H](C)C(=O)N[C@@H](C)C(=O)N[C@@H](CCCNC(=N)N)C(=O)N[C@@H](C)C(=O)N[C@@H](Cc1c[nH]c2ccccc12)C(=O)N[C@@H](CCCCN)C(=O)N[C@@H](CCCCN)C(=O)N[C@@H](Cc1ccc(O)cc1)C(=O)NCC(N)=O [Syn2] (H-GGLRSLGRKAARAWKKYG-NH2; N-terminus assumed) | loss of activity | very low potentiality | loss-of activity | –
